Source: US5523312A, “Antipicornaviral agents” (priority 1994, dated 1996)
≈ marks a conversion by molar mass, not a printed value.

Tested on: human rhinovirus (HRV) serotypes, panel B (HRV-3, -4, -5, -9, -16, -18, -38, -66, -75 and -67)
Experiment: automated TCID-50 assay, rhinovirus-induced CPE in HeLa cells, panel B
Format: cell-based
Conditions: Human rhinovirus sp., HRV3, 72 h, read-out: MIC50 (minimum concentration of the compound required to inhibit 50% of the tested serotypes)
Procedure: (§1) The MIC values were determined by an automated tissue culture infectious dose 50% (TCID-50) assay. HeLa cells in monoloyers in 96-well cluster plates were infected with a dilution of picornavirus which had been shown empirically to produce 80% to 100% cytopathic effect (CPE) in 3 days in the absence of drug. The compound to be tested was serially diluted through 10, 2-fold cycles and added to the infected cells. After a 3 day incubation at 33° C. and 2.5% carbon dioxide, the cells were fixed with a 5% solution of glutaraldehyde followed by staining with a 0.25% solution of crystal violet in water. The plates were then rinsed, dried, and the amount of stain remaining in the well (a measure of intact cells) was quantitated with an optical density reader. The MIC was determined to be the concentration of compound which protected 50% of the cells from picornavirus-induced CPE relative to an untreated picornavirus control.
(§2) In the above test procedures, representative compounds of formula I were tested against some the serotypes from either a panel of fifteen human rhinovirus (HRV) serotypes, (noted in the table as panel T) namely, HRV-2, -14, -1A, -1B, -6, -21, -22, -15, -25, -30, -50, -67, -89, -86 and -41 or against some of the serotypes from a panel of 10 human rhinovirus serotypes, namely HRV-3, -4, -5, -9, -16, -18, -38, -66, -75 and -67, (noted in the table as panel B) and the MIC value, expressed in micrograms per milliliter […], for each rhinopicornavirus serotype was determined for each picornavirus, example 1e is given as an example of the data. Then MIC50 values, which are the minimum concentrations of the compound required to inhibit 50% of the tested serotypes were determined.
(§3) The following Table gives the test results for representative compounds of the invention. The panel of picornaviruses used in the test appears before the MIC80 and MIC50 figure and the number of serotypes which the compound is tested against (n) is indicated after the MIC80 and MIC50 figure.

Compound	MIC50 [µg/mL]
Cc1cc(CCCCCn2ccc3cc(-c4noc(C(F)F)n4)cc(C)c32)on1 [Example 2e]	3.13 (≈ 7.82 µM)
Cc1cc(CCCCn2ccc3cc(-c4noc(C(F)(F)F)n4)cc(C)c32)on1 [Example 2d]	0.5 (≈ 1.24 µM)
Cc1cc(CCCn2ccc3cc(-c4noc(C(F)(F)F)n4)ccc32)on1 [Example 2i]	0.549 (≈ 1.46 µM)
Cc1cc(CCCn2ccc3cc(-c4noc(C(F)F)n4)ccc32)on1 [Example 2g]	69.4 (≈ 194 µM)
Cc1cc(CCCn2ccc3cc(-c4noc(C)n4)ccc32)on1 [Example 2c]	50.9 (≈ 158 µM)
Cc1cc(CCCCCn2ccc3cc(-c4noc(C(F)(F)F)n4)cc(C)c32)on1 [Example 2f]	0.307 (≈ 0.734 µM)
Cc1cc(CCCn2ccc3cc(-c4noc(C)n4)cc(C)c32)on1 [Example 2h]	0.158 (≈ 0.47 µM)

Tested on: not listed separately
Experiment: automated TCID-50 assay, rhinovirus-induced CPE in HeLa cells, panel T
Format: cell-based
Conditions: Human rhinovirus sp., HRV2, 72 h, read-out: MIC50 (minimum concentration of the compound required to inhibit 50% of the tested serotypes)
Procedure: as §1, §2, §3

Compound	MIC50 [µg/mL]
Cc1cc(CCCCc2cc3cc(-c4noc(C)n4)cc(Cl)c3o2)on1 [Example 1h]	0.124 (≈ 0.333 µM)
Cc1cc(CCCc2cc3cc(-c4nnn(C)n4)cc(C)c3o2)on1 [Example 1m]	0.192 (≈ 0.569 µM)
Cc1cc(CCCCc2cc3cc(-c4noc(C)n4)ccc3o2)on1 [Example 1f]	19.9 (≈ 59 µM)
Cc1cc(CCCCCc2cc3cc(C4=NCCO4)ccc3o2)on1 [Example 1k]	0.585 (≈ 1.73 µM)
CCCCn1nnc(-c2cc(C)c3oc(CCCCc4cc(C)no4)cc3c2)n1 [Example 1l]	49.8 (≈ 127 µM)
Cc1cc(CCCc2cc3cc(-c4noc(C)n4)cc(C)c3o2)on1 [Example 1g]	6.85 (≈ 20.3 µM)
Cc1cc(CCCCCc2cc3cc(C(=O)O)ccc3o2)on1 [Example 1j]	51.1 (≈ 163 µM)
Cc1cc(CCCCc2cc3cc(-c4noc(C(F)(F)F)n4)cc(C)c3o2)on1 [Example 1i]	37.4 (≈ 92.2 µM)
Cc1cc(CCc2cc3cc(-c4nnn(C)n4)cc(C)c3o2)on1 [Example 1n]	33.8 (≈ 105 µM)
